# From US11413261B2, “Pharmaceutical composition for treating cancer comprising lactate metal salt” (METIMEDI PHARMACEUTICALS CO., LTD, priority 2014, dated 2022)
# What was measured:
# [1] = system: PARP; assay: PARP protein expression in breast cancer cell lines (Western blot); type: cell-based, human
# Experimental: Human breast cancer cell lines (MCF-7 and MDA-MB-231) were cultured by the same method as that of Example 2-1 except that they were treated with 0 mM, 2.5 mM, or 5.0 mM calcium lactate, and the cultured cancer cells were obtained. Then, changes in expression level depending on the concentration of calcium lactate was analyzed at the protein expression levels of PARP included therein (FIG. 8). In this case, the change in expression level was analyzed through a Western blot using the Image-J program with anti-PARP antibody as a primary antibody and anti-rabbit IgG conjugate as a secondary antibody, and GAPDH was used as internal control groups.
# [2] = system: cancer cell lines; assay: α-KG level in cancer cells (α-Ketoglutarate assay kit); type: cell-based; settings: normal medium or glutamine-free medium; 2.5 mM, 24 hours
# Experimental: Cancer cell lines with the cell number of 5×10^5 cells cultured in a normal medium or a glutamine-free medium were treated with 2.5 mM calcium lactate for 24 hours and the cells were disrupted by ultrasonication and filtered using a 10 kDa filter so as to obtain filtrate. The obtained filtrate was applied to an α-Ketoglutarate assay kit (BioVision, Exton, Pa.) to measure the concentration of α-KG included in the filtrate (FIGS. 14a and 14b).
# [3] = system: HIF-1α; assay: HIF-1α expression in tumor tissues of animal model; type: in vivo, Balb/c mice; settings: HT-29 tumor tissue
# Experimental: (§1) A colorectal cancer cell (HT-29) cultured in an RPMI1640 medium and then diluted with PBS was subcutaneously implanted into the flank of Balb/c mice. The mice were bred until the colorectal cancer cell grew to about 5 mm. Then, four groups were set up; a control group untreated with calcium lactate for 30 days, an experimental group 1 (peroral, P.O.) administered with 2.5 mM calcium lactate by oral administration, an experimental group 2 (intra tumor, I.T) injected with 2.5 mM calcium lactate around tumor, and an experimental group 3 (subcutaneous, S.C) subcutaneously injected with 25 mM calcium lactate (FIG. 27).
# (§2) Colorectal cancer tissues were extracted from the mice of the control group or the experimental group 1 set up in Example 10-1, and expression levels of HIF-1α and VEGF involved in metastasis, invasion, and angiogenesis of tumor expressed therein were compared (FIG. 29). In this case, GAPDH was used as internal control groups.
# as §2, with “group 2” for “group 1”, “tumor” for “tumor expressed”, “(FIG. 31).” for “(FIG. 29).”
# [4] = system: cancer cell; assay: Comparison of lactate delivery efficiency to a cancer cell; type: cell-based; settings: compared with sodium lactate and potassium lactate
# [5] = system: colorectal cancer cell (HT-29 or HCT-116); assay: Tumor volume in animal model treated with radiation and calcium lactate; type: in vivo, mice
# Experimental: A colorectal cancer cell (HT-29 or HCT-116) was subcutaneously implanted into the flank of mice. The mice were bred until the colorectal cancer cell grew to about 5 mm. Then, four groups were set up; a control group untreated with calcium lactate for 30 days, an experimental group 11 (intra tumor, I.T) injected with 2.5 mM calcium lactate, an experimental group 12 (IR) irradiated with radiation of 2 Gy five times using an X-RAD 320 X-ray irradiator (300 kVp) equipped with a 2.0 mm aluminum filter, and an experimental group 13 (CaLa+IR) irradiated with radiation of 2 Gy five times and injected with 2.5 mM calcium lactate at the same time (FIG. 36).
# The volumes of colorectal cancer tissues extracted from the mice of the control group or each of the experimental groups set up in Example 11-1 were measured over time and compared with each other (FIGS. 37a and 37b).
# [6] = system: human breast cancer cell line (MCF-7) showing a resistance to Trastuzumab; assay: Colony-forming ability, Trastuzumab in combination with calcium lactate (6-well plates); type: cell-based; settings: Trastuzumab-resistant MCF-7; 2.5 mM calcium lactate alone; vs control
# Description: Then, the colony-forming abilities of the cells were compared. In this case, a human breast cancer cell line (MCF-7) untreated with any drug was used as a control group (FIGS. 54a and 54b).
# [7] = system: colorectal cancer cell line HCT-116; assay: Cell migration of colorectal cancer cell line (culture insert); type: cell-based; settings: 2.5 mM, 24 hours, then 12 hours after insert removal
# Experimental: A colorectal cancer cell line HCT-116 with the cell number of 4×10^5 cells was inoculated into a culture container at the center of which an ibidi culture insert having a thickness of 500 μm was placed, and treated with 2.5 mM calcium lactate and then cultured for 24 hours. Then, the insert was removed and further cultured for 12 hours to analyze migration of the cancer cells to a site where the insert was removed using a JuLi Br, Live cell analyzer (NanoEnTek Inc., South Korea) (FIG. 18). In this case, a colorectal cancer cell line cultured without treating with calcium lactate was used as a control group.
# [8] = system: VEGF (vascular endothelial growth factor); assay: VEGF mRNA and protein expression; type: cell-based, human; settings: HCT-116 and HT-29; 2.5 mM, 24 hours, hypoxia condition
# Experimental: Human colorectal cancer cell lines (HCT-116 and HT-29) were treated with 2.5 mM calcium lactate under hypoxia condition and cultured for 24 hours. Then, mRNA expression levels and protein expression levels of VEGF in each of the cultured cancer cell lines were analyzed (FIGS. 16a and 16b). In this case, human colorectal cancer cell lines cultured without treating with calcium lactate under normoxia or hypoxia condition were used as control groups.
# [9] = system: human colorectal cancer cell lines (HCT-116 and HT-29); assay: Lactate level in cancer cells (lactate assay kit); type: cell-based; settings: 2.5 mM, medium with 3 mM or 11 mM glucose, vs untreated
# Experimental: The cells cultured in Example 2-1 were cultured again in a medium including 3 mM (low) or 11 mM (normal) glucose. The cultured cells were disrupted by ultrasonication. The concentration of lactate included in the disrupted cells was measured using a lactate assay kit (AbCam, Cambridge, Mass.) (FIG. 3). In this case, cancer cells untreated with calcium lactate were used as control groups.
# [10] = system: PARP; assay: PARP expression in tumor tissue of xenograft animal model; type: in vivo, Balb/c mice; settings: HT-29 tumor tissue; 2.5 mM P.O. or 2.5 mM I.T.; vs control group
# Experimental: as §1
# Colorectal cancer tissues were extracted from the mice of the control group, the experimental group 1, or the experimental group 2 set up in Example 10-1, and expression levels of PARP and truncated PARP contributing to stabilization of cancer cells expressed therein were compared (FIG. 28).
smiles,measurement,setting,value
CC(O)C(=O)[O-].CC(O)C(=O)[O-].[Ca+2] (stereo not shown) [calcium lactate],protein expression levels of PARP,"[1]; MCF-7 and MDA-MB-231, with increasing concentration (0, 2.5, 5.0 mM)",decreased
same,protein expression levels of the truncated PARP,"[1]; MCF-7 cell line, 0, 2.5, 5.0 mM",increased
same,α-KG levels in the cells,[2],sharply increased
same,expression of HIF-1α,"[3]; experimental group 1, 2.5 mM oral administration",inhibited
same,expression of HIF-1α,"[3]; experimental group 2, 2.5 mM injected around tumor",inhibited
same,lactate delivery efficiency to a cancer cell,[4],highest lactate delivery efficiency
same,growth of tumor,"[5]; 2.5 mM calcium lactate I.T. individually, vs control",inhibited
same,growth of tumor,[5]; 2.5 mM calcium lactate in combination with radiation of 2 Gy five times,inhibited to the lowest level
same,colony-forming ability,[6],decreased
same,cell migration,[7],decreased
same,VEGF level (mRNA and protein),[8],decreased
same,concentration of lactate in cancer cells,[9],increased
same,PARP degrading activity,[10],increased
